The subject of experiment [1] is PBMC stimulated with anti-CD3 and anti-CD28 antibodies. Description: CD3/CD28 mediated PBMC proliferation assay. The note with it: Homo sapiens, 72 h, read-out: CD3/CD28 PMBC proliferation IC50 (nM).
Method: Individual wells of 96 well tissue culture plates were coated with 50 μL of 5 μg/mL anti-CD3 (OKT3, eBiosciences) overnight at 4° C. Human blood was collected in EDTA containing vacutainer tubes. […] The cells were placed in a humidified 37° C. incubator for 72 hours. Controls included unstimulated cells and media alone.
The target of another experiment is TXK (Homo sapiens (Human), UniProt P42681). Description: Kinase inhibition assay (Nanosyn, microfluidic detection), TXK. The format is biochemical. To be noted: 1 mM ATP, 3 hours at 25° C.
Another experiment has as its target BTK (Homo sapiens (Human), UniProt Q06187). The experiment can be described thus: Kinase inhibition assay (Nanosyn, microfluidic detection), BTK. It counts as biochemical. The note with it: 1 mM ATP, 3 hours at 25° C.
Experiment [2] relates to experimental autoimmune encephalomyelitis (EAE). The experiment can be described thus: Experimental autoimmune encephalomyelitis (EAE) model of multiple sclerosis. The format is in vivo, female C57BL/6 mice. The note with it: oral gavage once daily, 30 mg/kg. On the procedure: TEC kinases play important roles in immune cells and pathogenic microglia in multiple sclerosis. The efficacy of compound 16 was evaluated in experimental autoimmune encephalomyelitis (EAE), a mouse model of multiple sclerosis. […] A group of ten naïve C57BL/6 mice was maintained as a negative control. […] Mouse is not alert. 5.0—Death or severe paralysis resulting in euthanasia.

These results are taken from US10752615B2, “Spirocyclic containing compounds and pharmaceutical uses thereof” (GB005, Inc., priority 2016, dated 2020).

pIC50: −log10 of the molar value.

TXK, sequence (P42681 whole entry): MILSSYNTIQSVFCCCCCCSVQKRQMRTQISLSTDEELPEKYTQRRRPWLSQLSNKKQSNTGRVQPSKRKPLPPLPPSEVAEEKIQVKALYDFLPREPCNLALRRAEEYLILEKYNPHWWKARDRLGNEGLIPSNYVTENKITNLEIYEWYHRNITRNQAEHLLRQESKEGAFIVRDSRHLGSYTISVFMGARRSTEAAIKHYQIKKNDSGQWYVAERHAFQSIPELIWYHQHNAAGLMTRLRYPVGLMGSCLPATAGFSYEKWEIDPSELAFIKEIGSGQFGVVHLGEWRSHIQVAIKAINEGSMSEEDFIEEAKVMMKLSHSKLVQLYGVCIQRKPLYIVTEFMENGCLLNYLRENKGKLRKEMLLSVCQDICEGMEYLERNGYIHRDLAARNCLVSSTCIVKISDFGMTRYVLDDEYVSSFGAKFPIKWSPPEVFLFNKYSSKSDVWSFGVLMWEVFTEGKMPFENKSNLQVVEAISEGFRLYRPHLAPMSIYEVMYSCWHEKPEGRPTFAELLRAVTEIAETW
BTK, sequence (Q06187 whole entry): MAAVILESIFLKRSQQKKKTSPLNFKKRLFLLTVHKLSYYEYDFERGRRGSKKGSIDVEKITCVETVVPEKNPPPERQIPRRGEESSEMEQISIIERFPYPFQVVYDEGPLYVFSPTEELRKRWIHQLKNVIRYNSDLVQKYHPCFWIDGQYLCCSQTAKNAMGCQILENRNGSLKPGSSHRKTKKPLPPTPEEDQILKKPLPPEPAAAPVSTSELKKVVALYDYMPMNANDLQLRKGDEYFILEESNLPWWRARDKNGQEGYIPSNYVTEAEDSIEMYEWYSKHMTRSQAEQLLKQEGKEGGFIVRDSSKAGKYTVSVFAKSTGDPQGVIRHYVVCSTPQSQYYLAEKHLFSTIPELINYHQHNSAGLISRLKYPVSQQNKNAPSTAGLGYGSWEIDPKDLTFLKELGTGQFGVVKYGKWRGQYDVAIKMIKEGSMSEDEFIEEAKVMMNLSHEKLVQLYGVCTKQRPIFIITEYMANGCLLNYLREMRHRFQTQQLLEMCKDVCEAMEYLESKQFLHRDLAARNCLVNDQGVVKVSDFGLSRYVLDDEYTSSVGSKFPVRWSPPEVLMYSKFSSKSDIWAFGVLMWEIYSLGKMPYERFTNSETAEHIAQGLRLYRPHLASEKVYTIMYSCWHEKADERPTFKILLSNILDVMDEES

Take `C=CC(=O)N1CC[C@]2(C1)C[C@H](n1c(NC(=O)c3ccc(C(=O)O)s3)nc3ccccc31)C2` [Compound 100]: in experiment [1], the IC50 is above 300 nM.

With `C=CC(=O)N1CC[C@]2(C1)C[C@@H](n1c(NC(=O)c3ccc(-c4cnco4)s3)nc3c(OC)cccc31)C2` [Compound 88], in experiment [1], the IC50 is above 300 nM.

For `C=CC(=O)N1CC[C@]2(C1)C[C@H](n1c(NC(=O)c3ccc(NC(=O)C4CCOCC4)s3)nc3ccccc31)C2` [Compound 112], in experiment [1], the IC50 was above 300 nM.

Turning to `C=CC(=O)N1CC[C@]2(C1)C[C@H](n1c(NC(=O)c3cc4ccccc4s3)nc3ccccc31)C2` [Compound 81], in experiment [1], the IC50 was above 300 nM.

Take `C=CC(=O)N1CC[C@]2(C1)C[C@@H](n1c(NC(=O)c3ccc(-c4cnco4)s3)nc3c(Cl)cccc31)C2` [Compound 72]: in experiment [1], the IC50 is above 300 nM.

Turning to `C=CC(=O)N1CC[C@]2(C1)C[C@H](n1c(NC(=O)c3ccc(-c4ccnc(OC)c4)s3)nc3ccccc31)C2` [Compound 96], the results for the negative-log IC50 (pIC50) against TXK and at BTK were 9.46 and 8.81, respectively.

For `C=CC(=O)N1CC[C@]2(C1)C[C@H](n1c(NC(=O)c3ccc(OC)nc3)nc3ccccc31)C2` [Compound 55], the results for the pIC50 against TXK and at BTK were 8.47 and 7.56, respectively.

In the case of `C=CC(=O)N1CC[C@]2(C1)C[C@H](n1c(NC(=O)c3ccc(-c4ccccc4)nc3)nc3cc(CN[C@@H](C)C(C)(C)C)ccc31)C2` [Compound 33], the pIC50 (commonly the negative decadic logarithm of the IC50, by convention in mol/L) against TXK was 9.49; on BTK it was 9.11.

For `C=CC(=O)N1CC[C@]2(C1)C[C@@H](n1c(NC(=O)c3ccc(-c4cnco4)s3)nc3ccc(CO)cc31)C2` [Compound 78], the pIC50 was 8.63 against TXK and 7.93 on BTK.

For the molecule `C=CC(=O)N1CC[C@]2(C1)C[C@H](n1c(NC(=O)c3ccc(-c4ccc(N)nc4)s3)nc3ccccc31)C2` [Compound 31], the pIC50 was 8.99 on TXK and 8.27 at BTK.

Take `C=CC(=O)N1CC[C@]2(C1)C[C@H](n1c(NC(=O)c3cnc(C(C)C)s3)nc3cc(CN[C@@H](C)C(C)(C)C)ccc31)C2` [Compound 7]: the pIC50 against TXK was 9.22; at BTK, 8.66.

Turning to `C=CC(=O)N1CC[C@]2(C1)C[C@H](n1c(NC(=O)c3ccc(-c4cnco4)s3)nc3ccccc31)C2` [Compound 16], the pIC50 against BTK was 9.03. Besides, the “disease severity (EAE score)” value in experiment [2] (in PEG 400, treated after onset of symptoms, mice) is “greatly attenuated”. In addition, in experiment [2] (versus vehicle treated animals that rapidly progressed), the “symptoms of neurological deficit” value was “minimal symptoms”.

In the case of `C=CC(=O)N1CC[C@]2(C1)C[C@H](n1c(NC(=O)c3ccc(-c4c[nH]nc4C4CC4)s3)nc3ccccc31)C2` [Compound 129], the pIC50 on TXK was 9.68; against BTK it was 9.08.

As to `C=CC(=O)N1CC[C@]2(C1)C[C@H](n1c(NC(=O)c3ccno3)nc3ccccc31)C2` [Compound 45], the IC50 in experiment [1] stood at 60.3 nM.

Take `C=CC(=O)N1CC[C@]2(C1)C[C@H](n1c(NC(=O)c3ccc(-c4ccncn4)s3)nc3ccccc31)C2` [Compound 133]: the negative-log IC50 (pIC50) was 9.43 at TXK and 8.49 at BTK.

Turning to `C=CC(=O)N1CC[C@]2(C1)C[C@H](n1c(NC(=O)c3ccc(-c4cnco4)s3)nc3c(Cl)cccc31)C2` [Compound 64], the pIC50 against TXK was 7.40; against BTK it was 6.91.

As for `C=CC(=O)N1CC[C@]2(C1)C[C@H](n1c(NC(=O)c3ccnc(C)c3)nc3cc(CN[C@@H](C)C(C)(C)C)ccc31)C2` [Compound 24], the pIC50 at TXK is 9.00; against BTK, 8.26.

On to `C=CC(=O)N1CC[C@]2(C1)C[C@H](n1c(NC(=O)c3ccc(C(F)F)s3)nc3cc(CN4CCCC4)ccc31)C2` [Compound 34], for which the pIC50 at TXK is 9.35; against BTK, 8.86.

Take `C=CC(=O)N1CC[C@]2(C1)C[C@H](n1c(NC(=O)c3ccc(-c4cc(NC)ncn4)s3)nc3ccccc31)C2` [Compound 145]: the pIC50 on TXK was 9.70; against BTK it was 9.31.

With `C=CC(=O)N1CC[C@]2(C1)C[C@H](n1c(NC(=O)c3cccc(-c4cnco4)c3)nc3cc(CN[C@@H](C)C(C)(C)C)ccc31)C2` [Compound 38], the pIC50 at TXK was 9.17; at BTK, 8.39.

`C=CC(=O)N1CC[C@]2(C1)C[C@H](n1c(NC(=O)c3ccc(-c4cnco4)s3)nc3cc(N(C)C(=O)C(C)C)ccc31)C2` [Compound 54]: the pIC50 at TXK was 9.52; against BTK it was 9.25.

In the case of `C=CC(=O)N1CC[C@]2(C1)C[C@H](n1c(NC(=O)c3ccc(-c4nnc(C)o4)s3)nc3ccccc31)C2` [Compound 94], the pIC50 at TXK was 9.09; against BTK, 8.86.

For the molecule `C=CC(=O)N1CC[C@]2(C1)C[C@H](n1c(NC(=O)c3ccc(-c4cc(N)ncn4)s3)nc3ccccc31)C2` [Compound 141], the pIC50 against TXK was 9.54; against BTK, 8.74.

Consider `C=CC(=O)N1CC[C@]2(C1)C[C@H](n1c(NC(=O)c3ccc(=O)[nH]c3)nc3ccccc31)C2` [Compound 83], for which the figures for the negative-log IC50 (pIC50) on TXK and against BTK were 8.70 and 8.12, respectively.

For the molecule `C=CC(=O)N1CC[C@]2(C1)C[C@H](n1c(NC(=O)c3ccc(-c4cnco4)s3)nc3c(F)cccc31)C2` [Compound 61], the pIC50 against TXK is 9.31; against BTK, 8.17.

Regarding `C=CC(=O)N1CC[C@]2(C1)C[C@H](n1c(NC(=O)c3ccc(C(F)F)s3)nc3ccccc31)C2` [Compound 15], the figures for the pIC50 against TXK and on BTK were 9.26 and 8.36, respectively.

In the case of `C=CC(=O)N1CC[C@]2(C1)C[C@H](n1c(NC(=O)c3ccc(-c4ccncc4)s3)nc3ccccc31)C2` [Compound 110], the pIC50 was 9.74 at TXK and 8.95 on BTK.

As for `C=CC(=O)N1CC[C@]2(C1)C[C@H](n1c(NC(=O)c3ccc(-c4ccc(C)nc4)s3)nc3ccccc31)C2` [Compound 143], the pIC50 against TXK is 8.04; against BTK, 8.10.

Turning to `C=CC(=O)N1CC[C@]2(C1)C[C@H](n1c(NC(=O)c3ccc(-c4cncc(NC)c4)s3)nc3ccccc31)C2` [Compound 142], the pIC50 was 9.32 on TXK and 9.21 at BTK.

With `C=CC(=O)N1CC[C@]2(C1)C[C@H](n1c(NC(=O)c3ccc(-c4cnccn4)s3)nc3ccccc31)C2` [Compound 132], the pIC50 on TXK was 8.70; against BTK it was 7.99.

As for `C=CC(=O)N1CC[C@]2(C1)C[C@H](n1c(NC(=O)c3ccc(-c4cnco4)s3)nc3cc(N(C)C(C)=O)ccc31)C2` [Compound 53], the pIC50 against TXK was 9.41; on BTK, 9.19.

For `C=CC(=O)N1CC[C@]2(C1)C[C@@H](n1c(NC(=O)c3cnc(C(C)C)s3)nc3cc(CN[C@@H](C)C(C)(C)C)ccc31)C2` [Compound 11], in experiment [1], the IC50 was above 300 nM.

Turning to `C#Cc1ccc(C(=O)Nc2nc3cc(CN[C@@H](C)C(C)(C)C)ccc3n2[C@H]2C[C@@]3(CCN(C(=O)C=C)C3)C2)s1` [Compound 28], the pIC50 against TXK is 9.20; against BTK it was 8.77.

On to `C=CC(=O)N1CCC2(CC1)CC(n1c(NC(=O)c3ccc(C(F)F)s3)nc3cc(CN[C@@H](C)C(C)(C)C)ccc31)C2` [Compound 12], for which the IC50 in experiment [1] is above 300 nM.

Regarding `C=CC(=O)N1CC[C@]2(C1)C[C@H](n1c(NC(=O)c3cc4c(s3)CCCC4)nc3ccccc31)C2` [Compound 80], the IC50 in experiment [1] was above 300 nM.

Turning to `C=CC(=O)N1CC[C@]2(C1)C[C@H](n1c(NC(=O)c3ccc(-c4cc[nH]n4)s3)nc3ccccc31)C2` [Compound 116], the values for the pIC50 against TXK and against BTK were 8.51 and 7.80, respectively.
